Reference: patent US12655139B2, “Isoxazolidines as RIPK1 inhibitors and use thereof” (SANOFI, priority 2020, dated 2026)
Where a name gives a salt, the structure may show the parent alone. Read-outs that look alike come from different tables or passages of the source.

What was measured:
U937 cells = experiment: Cellular assay in U937 cells on cell death (necroptosis), TNFα/zVAD.fmk; format: cell-based; conditions: read-out: U937 IC50
Description: Cellular Assay in U937 Cells to Measure the Activity of RIPK1-Inhibitors on Cell Death (Necroptosis).
Cell death was quantified in 96 well plates by determination of the amount of live cell using a CellTiter 96 AQueous reagent (Promega), a calorimetric method to measure the amount of live cells by reducing tetrazolium compound [3-(4,5-dimethylthiazol-2-yl)-5-(3-carboxymethoxyphenyl)-2-(4-sulfophenyl)-2H-tetrazolium, inner salt; MTS] into formazan. Absorbance of formazan was read at 490 nm. The inhibitory activity of the test compound was quantified in a concentration response curve (CRC) experiment. Compounds were obtained as 10 mM stock solutions and were diluted 1 to 10 volumes with DMSO to yield a 1 mM solution. From this solution 2 μl were diluted with 998 μl growth medium. 100 μl of 2 μM compound solution was further diluted sequentially with a dilution factor of 2.5 by adding 150 μl growth medium. A total of 10 concentrations were tested ranging from 10 μM to 0.26 nM or from 1 μM to 0.07 nM.
U937 cells were cultured in RPMI1640 Glutamax and 10% heat inactivated FBS. 50 μl cell suspension containing 1×10^6 cells/ml supplemented with 50 μM zVAD.fmk (Benzyloxycarbonyl-Val-Ala-Asp (OMe) fluoromethylketone) and 100 ng/ml recombinant human TNFα were dispensed in each well of a 96-well plate. 50 μl of compound dilutions (see above) were added and the cell suspension incubated overnight (18 to 24 hours) at 37° C., 5% CO2 in a humidified atmosphere (95% rH). High (no compound) and low control (no TNFα, zVAD.fmk) were tested with 7 replicates; all compound concentrations were tested in duplicates on each experimental plate.
CellTiter 96 Aqueous reagent was mixed (100 μl PMS (phenazine methosulfate) solution/2 ml MTS (3-(4,5-[…])-5-(3-carboxymethoxyphenyl)-2-(4-sulfophenyl)-2H-tetrazolium, inner salt) solution) and 20 μl were added per well. After 4 hours incubation at 37° C. (5% CO2 95% rH) optical density was measured at 490 nm on a microplate reader (Tecan Infinite M1000).
The % inhibition is expressed as percentage of the maximal inhibition value obtained in the absence of TNFα/zVAD.fmc.

[1] = molecular target: T1, hRIPK1 (aa 1-375) fusion protein (Homo sapiens, UniProt Q13546); experiment: ADP-Glo kinase assay, RIPK1 autophosphorylation; format: biochemical; conditions: Table 1
T1 construct: hRIPK1 (aa 1-375) fusion protein
T1 sequence (Q13546 1-375): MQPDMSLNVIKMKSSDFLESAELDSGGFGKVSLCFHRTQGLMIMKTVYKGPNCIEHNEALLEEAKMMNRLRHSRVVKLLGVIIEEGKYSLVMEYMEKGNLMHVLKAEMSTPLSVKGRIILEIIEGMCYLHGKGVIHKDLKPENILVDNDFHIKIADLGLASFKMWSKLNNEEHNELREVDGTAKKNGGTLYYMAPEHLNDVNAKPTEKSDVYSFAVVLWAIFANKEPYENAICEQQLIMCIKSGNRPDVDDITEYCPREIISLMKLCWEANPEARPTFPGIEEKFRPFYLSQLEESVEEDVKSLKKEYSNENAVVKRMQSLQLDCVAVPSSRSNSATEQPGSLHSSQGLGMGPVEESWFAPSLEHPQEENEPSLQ
Procedure: Evaluation of Receptor-Interacting Protein Kinase 1 Inhibition.
The catalytic activity of RIPK1 was measured by monitoring the conversion of Adenosine triphosphate (ATP) to Adenosine diphosphate (ADP) due to autophosphorylation using an ADP-Glo kinase kit (Promega, catalog no. V9104).
After another 240 minutes incubation at room temperature, 5 μl Promega ADP-Glo reagent I were added to quench the reaction and deplete unconsumed ATP. After an incubation period of 30 minutes, 10 μl Promega ADP-Glo detection reagent II were added resulting in conversion of ADP to ATP, which generates a light-reaction between luciferase and luciferin. Luminescence was quantified after 30 minutes with a Pherastar FS (BMG LABTECH, Ortenberg).
The adjustment was obtained by nonlinear regression using the Levenberg Marquardt algorithm.

| Compound | IC50 (U937 cells; Table 2) | IC50 [1] | IC50 (U937 cells; Homo sapiens, U-937, Table 2) |
| --- | --- | --- | --- |
| 2-[(3R,4R)-4-[(3S)-3-(5-cyano-3-pyridyl)isoxazolidine-2-carbonyl]-3-fluoro-1-piperidyl]pyrimidine-4-carboxamide and 2-[(3S,4S)-4-[(3S)-3-(5-cyano-3-pyridyl)isoxazolidine-2-carbonyl]-3-fluoro-1-piperidyl]pyrimidine-4-carboxamide [Ex. 092] | 50.2 nM | 12.2 nM |  |
| N#Cc1cncc([C@@H]2CCON2C(=O)C2(F)CCN(c3nccc(C#N)n3)CC2(F)F)c1 (mixture of isomers) [Ex. 123] |  | 26.3 nM | 44.2 nM |
| NC(=O)c1cc(N2CCC(C(=O)N3OCCC3C3CCCOC3)CC2)ncn1 (racemic) [Ex. 023*, 6-[4-[3-Tetrahydropyran-3-ylisoxazolidine-2-carbonyl]-1-piperidyl]pyrimidine-4-carboxamide TFA salt] |  | 797 nM | 4670 nM |
| NC(=O)c1ccnc(N2CCC(C(=O)N3OCCC3c3cncc(CO)c3)CC2)n1 (racemic) [Ex. 025*, 2-[4-[3-[5-(Hydroxymethyl)-3-pyridyl]isoxazolidine-2-carbonyl]-1-piperidyl]pyrimidine-4-carboxamide] |  | 51.6 nM | 498 nM |
| NC(=O)c1cncc(C2CCON2C(=O)C2CCN(c3cc(C(N)=O)ncn3)CC2)c1 (racemic) [Ex. 030*] |  | 247 nM | 4170 nM |
| N#Cc1ccnc(N2CCC(C(=O)N3OCCC3c3cncc(CO)c3)CC2)n1 (racemic) [Ex. 031*] |  | 51.5 nM | 395 nM |
| NC(=O)c1cc(N2CCC(C(=O)N3OCCC3c3cncc(CO)c3)CC2)ncn1 (racemic) [Ex. 032*, 6-[4-[3-[5-(Hydroxymethyl)-3-pyridyl]isoxazolidine-2-carbonyl]-1-piperidyl]pyrimidine-4-carboxamide TFA salt] |  | 180 nM | 2440 nM |
| NC(=O)c1ccnc(N2CCC(C(=O)N3OCCC3c3ccc(N)nc3)CC2)n1 (racemic) [Ex. 036*] |  | 48.9 nM | 198 nM |
| N#Cc1ccnc(N2CCC(C(=O)N3OCCC3c3ccc(N)nc3)CC2)n1 (racemic) [Ex. 037*] |  | 31.5 nM | 177 nM |
| NC(=O)c1cc(N2CCC(C(=O)N3OCC[C@H]3c3ccc(N)nc3)CC2)ncn1 (racemic) [Ex. 038*] |  | 89.9 nM | 1710 nM |
| Cn1cc(C2CCON2C(=O)C2CCN(c3nccc(C(N)=O)n3)CC2)cn1 (racemic) [Ex. 046*] |  | 65.1 nM | 605 nM |
| Cn1cc(C2CCON2C(=O)C2CCN(c3nccc(C#N)n3)CC2)cn1 (racemic) [Ex. 047*] |  | 64.9 nM | 549 nM |
| NC(=O)c1cc(N2CCC(C(=O)N3OCCC3c3cncc(F)c3)CC2)ncn1 (racemic) [Ex. 048*] |  | 33.2 nM | 133 nM |
| N#Cc1cc(N2CCC(C(=O)N3OCCC3c3cncc(F)c3)CC2)ncn1 (racemic) [Ex. 049*] |  | 9.99 nM | 41.1 nM |
| NC(=O)c1ccnc(N2CCC(C(=O)N3OCCC3c3cncc(F)c3)CC2)n1 (racemic) [Ex. 050*] |  | 26.7 nM | 32.9 nM |
| COC(=O)c1ccnc(N2CCC(C(=O)N3OCCC3c3cncc(F)c3)CC2)n1 (racemic) [Ex. 051*, Methyl 2-[4-[3-(5-fluoro-3-pyridyl)isoxazolidine-2-carbonyl]-1-piperidyl]pyrimidine-4-carboxylate] |  | 134 nM | 678 nM |
| O=C(O)c1ccnc(N2CCC(C(=O)N3OCCC3c3cncc(F)c3)CC2)n1 (racemic) [Ex. 054*] |  | 767 nM | > 10000 nM |
| NC(=O)c1cc(N2CCC(C(=O)N3OCCC3c3ccc4nccn4c3)CC2)ncn1 (racemic) [Example 015, 6-[4-[3-imidazo[1,2-a]pyridin-6-ylisoxazolidine-2-carbonyl]-1-piperidyl] pyrimidine-4-carboxamide TFA salt] |  | 13100 nM |  |
| N#Cc1cncc([C@H]2CCON2C(=O)C2CCN(c3nccc(C(N)=O)n3)CC2)c1 [Ex. 016] |  | 18800 nM |  |
| COC(=O)c1ccnc(N2CCC(C(=O)N3OCC[C@H]3c3cncc(C#N)c3)CC2)n1 [compound 100] |  | 24.5 nM |  |
